Experiments:
Format in all cases: organism-based
Details in all cases: in vivo, other
Phaseolus vulgaris [1] = test: Phytotoxicity against Phaseolus vulgaris (kidney beans) assessed as visual crop injury at 1116 g a.i./ha applied pre-emergence 1 to 2 days post-planting measured on day 14 post-emergence relative to control
Phaseolus vulgaris [2] = test: Phytotoxicity against Phaseolus vulgaris (dry beans) assessed as visual crop injury at 2232 g a.i./ha applied pre-emergence 1 to 2 days post-planting measured on day 14 post-emergence relative to control
Phaseolus vulgaris [3] = test: Phytotoxicity against Phaseolus vulgaris (white beans) assessed as visual crop injury at 1116 g a.i./ha applied pre-emergence 1 to 2 days post-planting measured on day 14 post-emergence relative to control
Phaseolus vulgaris [4] = test: Phytotoxicity against Phaseolus vulgaris (yellow eye beans) assessed as shoot dry weight at 1116 g a.i./ha applied pre-emergence 1 to 2 days post-planting measured on day 42 post-emergence (reference value: 162 g/m)
Phaseolus vulgaris [5] = test: Phytotoxicity against Phaseolus vulgaris (otebo beans) assessed as shoot dry weight at 2232 g a.i./ha applied pre-emergence 1 to 2 days post-planting measured on day 42 post-emergence (reference value: 188 g/m)
Phaseolus vulgaris [6] = test: Phytotoxicity against Phaseolus vulgaris (dry beans) assessed as visual crop injury at 2232 g a.i./ha applied pre-emergence 1 to 2 days post-planting measured on day 28 post-emergence relative to control
Phaseolus vulgaris [7] = test: Phytotoxicity against Phaseolus vulgaris (pinto beans) assessed as shoot dry weight at 1116 g a.i./ha applied pre-emergence 1 to 2 days post-planting measured on day 42 post-emergence (reference value: 168 g/m)
Phaseolus vulgaris [8] = test: Phytotoxicity against Phaseolus vulgaris (black beans) assessed as plant height at 2232 g a.i./ha applied pre-emergence 1 to 2 days post-planting measured on day 28 post-emergence (reference value: 34 cm)
Phaseolus vulgaris [9] = test: Phytotoxicity against Phaseolus vulgaris (kidney beans) assessed as visual crop injury at 2232 g a.i./ha applied pre-emergence 1 to 2 days post-planting measured on day 14 post-emergence relative to control
Phaseolus vulgaris [10] = test: Phytotoxicity against Phaseolus vulgaris (white beans) assessed as plant height at 1116 g a.i./ha applied pre-emergence 1 to 2 days post-planting measured on day 28 post-emergence (reference value: 36 cm)
Phaseolus vulgaris [11] = test: Phytotoxicity against Phaseolus vulgaris (otebo beans) assessed as visual crop injury at 1116 g a.i./ha applied pre-emergence 1 to 2 days post-planting measured on day 14 post-emergence relative to control
Phaseolus vulgaris [12] = test: Phytotoxicity against Phaseolus vulgaris (black beans) assessed as visual crop injury at 2232 g a.i./ha applied pre-emergence 1 to 2 days post-planting measured on day 14 post-emergence relative to control
Phaseolus vulgaris [13] = test: Phytotoxicity against Phaseolus vulgaris (black beans) assessed as visual crop injury at 1116 g a.i./ha applied pre-emergence 1 to 2 days post-planting measured on day 14 post-emergence relative to control
Phaseolus vulgaris [14] = test: Phytotoxicity against Phaseolus vulgaris (cranberry beans) assessed as shoot dry weight at 1116 g a.i./ha applied pre-emergence 1 to 2 days post-planting measured on day 42 post-emergence (reference value: 161 g/m)
Phaseolus vulgaris [15] = test: Phytotoxicity against Phaseolus vulgaris (brown beans) assessed as yield at 1116 g a.i./ha applied pre-emergence 1 to 2 days post-planting measured on day 42 post-emergence (reference value: 2.5 tons/ha)
Phaseolus vulgaris [16] = test: Phytotoxicity against Phaseolus vulgaris (otebo beans) assessed as plant height at 2232 g a.i./ha applied pre-emergence 1 to 2 days post-planting measured on day 28 post-emergence (reference value: 38 cm)
Phaseolus vulgaris [17] = test: Phytotoxicity against Phaseolus vulgaris (dry beans) assessed as visual crop injury at 1116 g a.i./ha applied pre-emergence 1 to 2 days post-planting measured on day 7 post-emergence relative to control
Phaseolus vulgaris [18] = test: Phytotoxicity against Phaseolus vulgaris (otebo beans) assessed as yield at 2232 g a.i./ha applied pre-emergence 1 to 2 days post-planting measured on day 42 post-emergence (reference value: 3.4 tons/ha)
Phaseolus vulgaris [19] = test: Phytotoxicity against Phaseolus vulgaris (cranberry beans) assessed as shoot dry weight at 2232 g a.i./ha applied pre-emergence 1 to 2 days post-planting measured on day 42 post-emergence (reference value: 161 g/m)
Phaseolus vulgaris [20] = test: Phytotoxicity against Phaseolus vulgaris (pinto beans) assessed as shoot dry weight at 2232 g a.i./ha applied pre-emergence 1 to 2 days post-planting measured on day 42 post-emergence (reference value: 168 g/m)
Phaseolus vulgaris [21] = test: Phytotoxicity against Phaseolus vulgaris (kidney beans) assessed as yield at 1116 g a.i./ha applied pre-emergence 1 to 2 days post-planting measured on day 42 post-emergence (reference value: 2.3 tons/ha)
Phaseolus vulgaris [22] = test: Phytotoxicity against Phaseolus vulgaris (brown beans) assessed as visual crop injury at 1116 g a.i./ha applied pre-emergence 1 to 2 days post-planting measured on day 14 post-emergence relative to control
Phaseolus vulgaris [23] = test: Phytotoxicity against Phaseolus vulgaris (black beans) assessed as yield at 2232 g a.i./ha applied pre-emergence 1 to 2 days post-planting measured on day 42 post-emergence (reference value: 3.6 tons/ha)
Phaseolus vulgaris [24] = test: Phytotoxicity against Phaseolus vulgaris (yellow eye beans) assessed as plant height at 1116 g a.i./ha applied pre-emergence 1 to 2 days post-planting measured on day 28 post-emergence (reference value: 38 cm)
Phaseolus vulgaris [25] = test: Phytotoxicity against Phaseolus vulgaris (brown beans) assessed as yield at 2232 g a.i./ha applied pre-emergence 1 to 2 days post-planting measured on day 42 post-emergence (reference value: 2.5 tons/ha)
Phaseolus vulgaris [26] = test: Phytotoxicity against Phaseolus vulgaris (black beans) assessed as yield at 1116 g a.i./ha applied pre-emergence 1 to 2 days post-planting measured on day 42 post-emergence (reference value: 3.6 tons/ha)
Phaseolus vulgaris [27] = test: Phytotoxicity against Phaseolus vulgaris (white beans) assessed as shoot dry weight at 2232 g a.i./ha applied pre-emergence 1 to 2 days post-planting measured on day 42 post-emergence (reference value: 175 g/m)
Phaseolus vulgaris [28] = test: Phytotoxicity against Phaseolus vulgaris (cranberry beans) assessed as yield at 1116 g a.i./ha applied pre-emergence 1 to 2 days post-planting measured on day 42 post-emergence (reference value: 3.1 tons/ha)
Phaseolus vulgaris [29] = test: Phytotoxicity against Phaseolus vulgaris (pinto beans) assessed as yield at 1116 g a.i./ha applied pre-emergence 1 to 2 days post-planting measured on day 42 post-emergence (reference value: 3.1 tons/ha)
Phaseolus vulgaris [30] = test: Phytotoxicity against Phaseolus vulgaris (pinto beans) assessed as visual crop injury at 2232 g a.i./ha applied pre-emergence 1 to 2 days post-planting measured on day 14 post-emergence relative to control
Phaseolus vulgaris [31] = test: Phytotoxicity against Phaseolus vulgaris (cranberry beans) assessed as yield at 2232 g a.i./ha applied pre-emergence 1 to 2 days post-planting measured on day 42 post-emergence (reference value: 3.1 tons/ha)
Phaseolus vulgaris [32] = test: Phytotoxicity against Phaseolus vulgaris (yellow eye beans) assessed as shoot dry weight at 2232 g a.i./ha applied pre-emergence 1 to 2 days post-planting measured on day 42 post-emergence (reference value: 162 g/m)

CC1(C)CON(Cc2ccccc2Cl)C1=O [CLOMAZONE]
Activity (Phaseolus vulgaris [1]): 5% | Activity (Phaseolus vulgaris [2]): 10% | Activity (Phaseolus vulgaris [3]): 2% | Activity (Phaseolus vulgaris [4]): 160 g/m | Activity (Phaseolus vulgaris [5]): 168 g/m | Activity (Phaseolus vulgaris [6]): 4% | Activity (Phaseolus vulgaris [7]): 166 g/m | Activity (Phaseolus vulgaris [8]): 30 cm | Activity (Phaseolus vulgaris [9]): 10% | Activity (Phaseolus vulgaris [10]): 34 cm | Activity (Phaseolus vulgaris [11]): 3% | Activity (Phaseolus vulgaris [12]): 13% | Activity (Phaseolus vulgaris [13]): 3% | Activity (Phaseolus vulgaris [14]): 150 g/m | Crop_yield (Phaseolus vulgaris [15]): 2.6 tons/ha | Activity (Phaseolus vulgaris [16]): 34 cm | Activity (Phaseolus vulgaris [17]): 5% | Crop_yield (Phaseolus vulgaris [18]): 3.2 tons/ha | Activity (Phaseolus vulgaris [19]): 137 g/m | Activity (Phaseolus vulgaris [20]): 146 g/m | Crop_yield (Phaseolus vulgaris [21]): 2.3 tons/ha | Activity (Phaseolus vulgaris [22]): 3% | Crop_yield (Phaseolus vulgaris [23]): 3.3 tons/ha | Activity (Phaseolus vulgaris [24]): 36 cm | Crop_yield (Phaseolus vulgaris [25]): 2.7 tons/ha | Crop_yield (Phaseolus vulgaris [26]): 3.3 tons/ha | Activity (Phaseolus vulgaris [27]): 154 g/m | Crop_yield (Phaseolus vulgaris [28]): 3.2 tons/ha | Crop_yield (Phaseolus vulgaris [29]): 3.1 tons/ha | Activity (Phaseolus vulgaris [30]): 11% | Crop_yield (Phaseolus vulgaris [31]): 3 tons/ha | Activity (Phaseolus vulgaris [32]): 130 g/m

Reference: ChEMBL document CHEMBL3044870, “Effect of clomazone on various market classes of dry beans” (Crop Prot, 2007)
